Reference: article PMC10484855, “Production, purification, and characterization of cold-active lipase from the psychrotroph Pseudomonas sp. A6” (Brazilian Journal of Microbiology, 2023)

System: T1, cold-active lipase from Pseudomonas sp. A6
T1 construct: 65 kDa by SDS-PAGE
Test: spectrophotometric p-nitrophenol release at […] nm; Lineweaver-Burk plot
Format: biochemical
Settings: 10 °C; phosphate buffer; pH of the Km assay not stated; unit printed ambiguously as 'm mol'

**Q.** `CCCCCCCCCCCC(=O)Oc1ccc([N+](=O)[O-])cc1` [p-nitrophenyl laurate] was tested. Which Km did it give?
**A.** 6.6 * 10^−4 m mol L^−1
